Molecular target: T1, C5AR1 (Homo sapiens, UniProt P21730)
T1 construct: host or cells: CHO-K1
T1 sequence (P21730 1-350): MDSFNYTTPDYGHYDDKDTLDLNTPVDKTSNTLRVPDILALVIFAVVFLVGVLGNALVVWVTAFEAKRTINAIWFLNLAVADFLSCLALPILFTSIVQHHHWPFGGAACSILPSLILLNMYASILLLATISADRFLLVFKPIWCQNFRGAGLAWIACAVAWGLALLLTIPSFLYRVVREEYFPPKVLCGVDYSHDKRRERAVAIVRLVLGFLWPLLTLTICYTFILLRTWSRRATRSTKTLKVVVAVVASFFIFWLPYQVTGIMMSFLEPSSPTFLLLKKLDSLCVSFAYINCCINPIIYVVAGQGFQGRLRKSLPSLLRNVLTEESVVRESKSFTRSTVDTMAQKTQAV
Test: hC5a DISCO IC50 assay (PathHunter beta-arrestin, antagonist mode)
Type: cell-based
Settings: CHO-K1 C5AR1 beta-arrestin cell line; antagonist vs 1-10 nM C5a agonist; geometric mean values; read-out: C5aR IC50
Summary of the method: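 Antagonist added first, then 1-10 nM C5a agonist; cells incubated 1.5 h at 37 °C. Beta-arrestin signal developed with PathHunter detection reagent, 45 min at RT. IC50 in nmol/l from serial antagonist dilutions, reported as geometric mean of several measurements.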

IC50 | Compound
511 nM | COc1nccnc1Cn1c(=O)n([C@@H]2CCN(c3c(F)cccc3C#N)C2)c2cccc(OC)c21 [Example 112, 3-Fluoro-2-{(R)-3-[4-methoxy-3-(3-methoxy-pyrazin-2-ylmethyl)-2-oxo-2,3-dihydro-benzoimidazol-1-yl]-pyrrolidin-1-yl}-benzonitrile]
30 nM | COc1cccc2c1n(Cc1ccccc1C(F)(F)F)c(=O)n2C1CCN(c2c(C)cccc2F)CC1(C)C (stereo not shown) [Example 227, 1-[1-(2-Fluoro-6-methyl-phenyl)-3,3-dimethyl-piperidin-4-yl]-4-methoxy-3-(2-trifluoromethyl-benzyl)-1,3-dihydro-benzoimidazol-2-one]
74 nM | COc1cccc2c1n(Cc1ccccc1C(F)(F)F)c(=O)n2C1CCN(c2ccccc2OC2COC2)CC1 [Example 242, 4-Methoxy-1-{1-[2-(oxetan-3-yloxy)-phenyl]-piperidin-4-yl}-3-(2-trifluoromethyl-benzyl)-1,3-dihydro-benzoimidazol-2-one]
1590 nM | COc1cccc2c1n(Cc1ccccc1C(F)(F)F)c(=O)n2[C@@H]1CCN(c2c(F)cccc2CN2CCC(N(C)C)CC2)C1 [Example 136, 1-{(R)-1-[2-(4-Dimethylamino-piperidin-1-ylmethyl)-6-fluoro-phenyl]-pyrrolidin-3-yl}-4-methoxy-3-(2-trifluoromethyl-benzyl)-1,3-dihydro-benzoimidazol-2-one]
133 nM | COc1cccc2c1n(Cc1ccccc1C(F)(F)F)c(=O)n2C1CCN(c2ccccc2OCCO)CC1 [Example 238, 1-{1-[2-(2-Hydroxy-ethoxy)-phenyl]-piperidin-4-yl}-4-methoxy-3-(2-trifluoromethyl-benzyl)-1,3-dihydro-benzoimidazol-2-one]
28 nM | COc1cccc2c1n(Cc1ccccc1C(F)(F)F)c(=O)n2C1CCN(c2c(C)ccnc2F)CC1 [Example 235, 1-(2′-Fluoro-4′-methyl-3,4,5,6-tetrahydro-2H-[1,3′]bipyridinyl-4-yl)-4-methoxy-3-(2-trifluoromethyl-benzyl)-1,3-dihydro-benzoimidazol-2-one]
313 nM | COc1cccc(C)c1N1CC[C@@H](n2c(=O)n(Cc3ccccc3C(F)(F)F)c3c(=O)[nH]ccc32)C1 [Example 94, 1-[(R)-1-(2-Methoxy-6-methyl-phenyl)-pyrrolidin-3-yl]-3-(2-trifluoromethyl-benzyl)-3,5-dihydro-1H-imidazo[4,5-c]pyridine-2,4-dione]
182 nM | COC(=O)N1CCC(n2c(=O)n(Cc3ccccc3C(F)(F)F)c3c(OC)cccc32)CC1 [Example 29, 4-[4-Methoxy-2-oxo-3-(2-trifluoromethyl-benzyl)-2,3-dihydro-benzoimidazol-1-yl]-piperidine-1-carboxylic acid methyl ester]
396 nM | COc1ccccc1Cn1c(=O)n([C@@H]2CCN(C(=O)OC(C)(C)C)C2)c2cccc(OC)c21 [Example 65, (R)-3-[4-Methoxy-3-(2-methoxy-benzyl)-2-oxo-2,3-dihydro-benzoimidazol-1-yl]-pyrrolidine-1-carboxylic acid tert-butyl ester]
659 nM | Cc1cccc(F)c1N1CC[C@@H](n2c(=O)n(Cc3ccccc3C(F)(F)F)c3c(OCCN(C)C)nccc32)C1 [Example 120, 4-(2-Dimethylamino-ethoxy)-1-[(R)-1-(2-fluoro-6-methyl-phenyl)-pyrrolidin-3-yl]-3-(2-trifluoromethyl-benzyl)-1,3-dihydro-imidazo[4,5-c]pyridin-2-one]
119 nM | COc1cccc2c1n(Cc1ccccc1C(F)(F)F)c(=O)n2[C@H]1CN(C(=O)OC(C)(C)C)C[C@H]1C (relative stereo) [Example 199, (3R*,4R*)-3-[4-Methoxy-2-oxo-3-(2-trifluoromethyl-benzyl)-2,3-dihydro-benzoimidazol-1-yl]-4-methyl-pyrrolidine-1-carboxylic acid tert-butyl ester]
122 nM | COc1cccc2c1n(Cc1ccccc1C(F)(F)F)c(=O)n2C1CCCN(C(=O)OC(C)(C)C)CC1 (stereo not shown) [Example 179, 4-[4-Methoxy-2-oxo-3-(2-trifluoromethyl-benzyl)-2,3-dihydro-benzoimidazol-1-yl]-azepane-1-carboxylic acid tert-butyl ester]
89 nM | COc1ccccc1Cn1c(=O)n([C@@H]2CCN(c3c(C)cccc3C)C2)c2ccnc(OC)c21 [Example 77, 1-[(R)-1-(2,6-Dimethyl-phenyl)-pyrrolidin-3-yl]-4-methoxy-3-(2-methoxy-benzyl)-1,3-dihydro-imidazo[4,5-c]pyridin-2-one]
129 nM | COc1cccc2c1n(Cc1ccccc1C(F)(F)F)c(=O)n2C1CCN(c2ccccc2O)CC1 [Example 230, 1-[1-(2-Hydroxy-phenyl)-piperidin-4-yl]-4-methoxy-3-(2-trifluoromethyl-benzyl)-1,3-dihydro-benzoimidazol-2-one]
27 nM | COc1cccc2c1n(Cc1ncccc1C(F)(F)F)c(=O)n2C1CCN(c2c(C)cccc2C)CC1 [Example 75, 1-[1-(2,6-Dimethyl-phenyl)-piperidin-4-yl]-4-methoxy-3-(3-trifluoromethyl-pyridin-2-ylmethyl)-1,3-dihydro-benzoimidazol-2-one]
11 nM | Cc1cccc(F)c1N1CC[C@@H](n2c(=O)n(Cc3ccccc3C(F)(F)F)c3c(OCCO)cccc32)C1 [Example 150, 1-[(R)-1-(2-Fluoro-6-methyl-phenyl)-pyrrolidin-3-yl]-4-(2-hydroxy-ethoxy)-3-(2-trifluoromethyl-benzyl)-1,3-dihydro-benzoimidazol-2-one]
3340 nM | COc1cccc2c1n(Cc1ccccc1C(F)(F)F)c(=O)n2[C@@H]1CCN(C(=O)c2ccccc2)C1 [Example 27, 1-((R)-1-Benzoyl-pyrrolidin-3-yl)-4-methoxy-3-(2-trifluoromethyl-benzyl)-1,3-dihydro-benzoimidazol-2-one]
563 nM | COc1ccnc(C)c1N1CCC(n2c(=O)n(Cc3ccccc3C(F)(F)F)c3c(OC)cccc32)CC1 [Example 247, 4-Methoxy-1-(4′-methoxy-2′-methyl-3,4,5,6-tetrahydro-2H-[1,3′]bipyridinyl-4-yl)-3-(2-trifluoromethyl-benzyl)-1,3-dihydro-benzoimidazol-2-one]
34 nM | COc1cccc2c1n(Cc1ccccc1OC1CC1)c(=O)n2C1CCN(c2c(C)cccc2F)CC1 [Example 209, 3-(2-Cyclopropoxy-benzyl)-1-[1-(2-fluoro-6-methyl-phenyl)-piperidin-4-yl]-4-methoxy-1,3-dihydro-benzoimidazol-2-one]
32 nM | COc1cccc2c1n(Cc1ccccc1C(F)(F)F)c(=O)n2C1CCN(c2c(F)cccc2F)CC1 [Example 9, 1-[1-(2,6-Difluoro-phenyl)-piperidin-4-yl]-4-methoxy-3-(2-trifluoromethyl-benzyl)-1,3-dihydro-benzoimidazol-2-one]
89 nM | Cc1cccc(F)c1N1CC[C@@H](n2c(=O)n(Cc3ccccc3C(F)(F)F)c3c(=O)[nH]ccc32)C1 [Example 57, 1-[(R)-1-(2-Fluoro-6-methyl-phenyl)-pyrrolidin-3-yl]-3-(2-trifluoromethyl-benzyl)-3,5-dihydro-1H-imidazo[4,5-c]pyridine-2,4-dione]
74 nM | COc1cccc2c1n(Cc1ccccc1C(F)(F)F)c(=O)n2C1C2CC1CN(c1c(C)cccc1F)C2 (stereo not shown) [Example 197, 1-[3-(2-Fluoro-6-methyl-phenyl)-3-aza-bicyclo[3.1.1]hept-6-yl]-4-methoxy-3-(2-trifluoromethyl-benzyl)-1,3-dihydro-benzoimidazol-2-one]
171 nM | COc1cccc2c1n(Cc1ccccc1C(F)(F)F)c(=O)n2C1CCN(c2ncccc2F)CC1 [Example 236, 1-(3′-Fluoro-3,4,5,6-tetrahydro-2H-[1,2′]bipyridinyl-4-yl)-4-methoxy-3-(2-trifluoromethyl-benzyl)-1,3-dihydro-benzoimidazol-2-one]
330 nM | COc1cccc2c1n(Cc1ccccc1C(F)(F)F)c(=O)n2C1CCN(c2c(Cl)c(C3CC3)nn2C)CC1 [Example 24, 1-[1-(4-Chloro-5-cyclopropyl-2-methyl-2H-pyrazol-3-yl)-piperidin-4-yl]-4-methoxy-3-(2-trifluoromethyl-benzyl)-1,3-dihydro-benzoimidazol-2-one]
1320 nM | COc1cccc2c1n(Cc1ccccc1C(F)(F)F)c(=O)n2[C@@H]1CCN(c2c(F)cccc2CN(C)CCO)C1 [Example 107, 1-[(R)-1-(2-Fluoro-6-{[(2-hydroxy-ethyl)-methyl-amino]-methyl}-phenyl)-pyrrolidin-3-yl]-4-methoxy-3-(2-trifluoromethyl-benzyl)-1,3-dihydro-benzoimidazol-2-one]
133 nM | COc1cccc2c1n(Cc1ccccc1C(F)(F)F)c(=O)n2[C@@H]1CCN(c2c(C=O)c(C)nn2C)C1 [Example 71, 5-{(R)-3-[4-Methoxy-2-oxo-3-(2-trifluoromethyl-benzyl)-2,3-dihydro-benzoimidazol-1-yl]-pyrrolidin-1-yl}-1,3-dimethyl-1H-pyrazole-4-carbaldehyde]
1330 nM | COc1cccc2c1n(Cc1ccccc1C(F)(F)F)c(=O)n2C1CCN(C(=O)C(C)(C)C)CC1 [Example 28, 1-[1-(2,2-Dimethyl-propionyl)-piperidin-4-yl]-4-methoxy-3-(2-trifluoromethyl-benzyl)-1,3-dihydro-benzoimidazol-2-one]

Compound | IC50
COc1cccc2c1n(Cc1ccccc1C(F)(F)F)c(=O)n2C1CCN(c2ccccc2OC2CCC2)CC1 [Example 241, 1-[1-(2-Cyclobutoxy-phenyl)-piperidin-4-yl]-4-methoxy-3-(2-trifluoromethyl-benzyl)-1,3-dihydro-benzoimidazol-2-one] | 36 nM

— patent US11739070B2, “C5A receptor modulators” (IDORSIA PHARMACEUTICALS LTD, priority 2018, dated 2023)
